Test results reported in US5968955A, “Disubstituted piperidine derivatives as neuroprotective agents” (Pharmacia & Upjohn S.p.A., priority 1995, dated 1999).

Key:
[1] = test system: mixed cortical neuronal cultures; test: neuroprotection against NMDA induced toxicity in mixed cortical neuronal cultures (Trypan Blue Dye Exclusion); type: cell-based, rat (foetal rats); conditions: prevention of toxicity by NMDA 500 μM, 20 min exposure, 3 min preincubation, viability after 24 h
Protocol: The efficacy of the compounds of the invention as neuroprotective agents, based upon their ability to prevent EEA induced toxicity in vitro, was evaluated in mixed cortical neuronal cultures, following the method reported below.
Mixed cortical neuronal cultures from foetal rats at 16 days of gestation were prepared as described by Choi (J. Neur. Sci. 7: 357-368, 1987).
Briefly, dissociated cells were plated on poly-L-lysine coated multiwell plates at density of 1*10^5 cells/cm^2 in MEM with Earle's salts supplemented with 21 mM D-glucose, 2 mM L-glutamine, 50 μg/ml Streptomicin, 50 IU Penicillin, 10% Foetal Calf Serum and 10% Horse Serum. Cultures were kept at 37° C., 5% CO2 and survived about 5 weeks. After 7 days in vitro, astrocites proliferation was inhibited by adding 10 μM Cytosine Arabinoside for 48 hours; the medium was subsequently substituted twice a week with a fresh medium without foetal calf serum (Hatley, J. Pharm. and Exp. Ther. 250 (II);752-758, 1989).
Only nature cortical cultures, from 14 DIV on, were used for the study.
Experiments were performed at 25° C. as follows: cells were washed once with a Locke's buffer, (128 mM NaCl, […] KCl, 1.2 mM Na2 HPO4, 2.7 mM CaCl2, 20 mM Hepes and 10 mM D-glucose) pH=7.4, then preincubated with the test compounds for 3 min. followed by a 20 min. exposure to N-methyl-D-aspartate (NMDA) (500 μM).
The incubation was stopped by removing Locke's buffer and substituting the conditioned medium. After 24 hours at 37° C., 5% CO2, Trypan Blue Dye Exclusion Test (0.04%) was used for evaluating the cells viability.

[2] = test system: focal ischemia in mice (Middle Cerebral Artery occlusion); test: antiischemic activity in vivo in the model of focal ischemia in mice (MCA electrocoagulation), infarct volume; set-up: species or system mice (male Swiss CD); conditions: male Swiss mice; for Infarct volume: Means ± SEM after MCA occlusion, day 4, 7 mg/Kg i.p. 5 min and 6 h after ischemia, then twice a day on days 2, 3 and 4, saline 20.9 ± 1.7, P < 0.01 from controls
Protocol: The antiischemic activity of the compounds of the present invention was evaluated in vivo in the model of focal ischemia in mice.
Focal ischemia was produced in mice by electrocoagulation of the Middle Cerebral Artery (MCA) according the procedure reported by Welsh et al. (Welsh F A, Sakamoto T, McKee A, Sims R E, J Neurochem: 49: 846-851, 1987). Briefly, male Swiss CD mice (C. River, Milan, Italy) were anesthetised with chloral hydrate (500 mg/Kg i.p.); an incision was made on the temporo-parietal region of the head and a small burr hole was drilled into the lateral outer surface of the skull just over the MCA. The stem of the MCA was occluded by microbipolar coagulation. Animals were maintained under an heating lamp during surgery and for two hours afterwards.
Four days after the occlusion, mice were decapitated and the brains stored a -20° C. until sectioned for histological examination.
Coronal sections (50 μm thick) of the frozen brains were taken every 1.00 mm in order to evaluate the infarct volume.
The slices were stained with cresyl violet and the cortical infarct area of each slice was determined by an image analyzing system (Ibas 20, Kontron, Milan, Italy). Infarct volume was calculated from the infarct area on each slice and the distance between succeeding slices.
The treatment schedule consisted in the administration of the tested compound 5 min and 6 h after ischemia during the first day after surgery and then twice a day on days 2, 3 and 4 according to published data (Gotti B. et al.; Brain Research, 522,290-307, 1990). The tested compounds were given i.p. at the dose of 7 mg/Kg.
Dosing was performed till sacrifice. The time schedule, the doses and the route of administration of the tested compounds were selected on the basis of preliminary experiments.

`OC(CN1CCC(Cc2ccccc2)CC1)c1cc(Br)no1` (racemic) [Compound 1, (±)-2-(4-Benzyl-piperidin-1-yl)-1-(3-bromo-isoxazol-5-yl) -ethan-1-ol] showed an EC50 ([1]; Rattus norvegicus) of 2.02 µM.

`COc1cc(C(O)CN2CCC(Cc3ccccc3)CC2)on1` (racemic) [Compound 3, (±)-2-(4-Benzyl-piperidin-1-yl)-1-(3-methoxy-isoxazol-5-yl)-ethan-1-ol] was tested, and the EC50 ([1]; Rattus norvegicus) was 3.29 µM, the “Effect on infarct volume compared with saline-treated mice (in words)” value ([2]; 7 mg/Kg i.p., day 4, versus saline) was “significantly reduce infarct volume” and the Infarct volume ([2]; 7 mg/kg) was 13.6 ± 1.5 mm^3. For the same compound, the Infarct volume ([2]; listed as Example 2, 7 mg/kg) was 13.6±1.5 mm^3.

`COc1cc(C(O)CN2CCC(C(=O)c3ccc(F)cc3)CC2)on1` (racemic) [Compound 27, (±)2-[4-(p-Fluoro-benzoyl)-piperidin-1-yl]-1-(3-methoxy-isoxazol-5-yl)-ethan-1-ol] showed an EC50 ([1]; Rattus norvegicus) of 0.64 µM.

`ON=C(CN1CCC(Cc2ccccc2)CC1)c1cc(Br)no1` [Compound 17, (±)-2-(4-Benzyl-piperidin-1-yl)-1-(3-bromo-isoxazol-5-yl)-ethan-1-one-oxyme] showed an EC50 [1] of 2.13 µM.

`O=C(c1ccc(F)cc1)C1CCN(CC(O)c2cc(Br)no2)CC1` (centres unmarked) [Compound 25, 2-[4-(4-fluoro-benzoyl)piperidin-1-yl]-1-(3-bromo-isoxazol-5-yl)-ethan-1-ol] gave an EC50 ([1]; Rattus norvegicus) of 22 µM.
